Assay [1] relates to NL4-3∆Env-NanoLuc/SARS-CoV-2 mutant pseudovirus E484K/N501Y. It counts as cell-based.
In assay [2] the target is SARS-CoV-2 spike (active trimer) His-tag (Severe acute respiratory syndrome coronavirus 2, UniProt P0DTC2, K986P/R682S/R685S/V987P). The assay is classed as binding.
Assay [3] concerns NL4-3∆Env-NanoLuc/SARS-CoV-2 mutant pseudovirus E484K. It counts as cell-based.
Assay [4] deals with NL4-3∆Env-NanoLuc/SARS-CoV-2 mutant pseudovirus D614G/P681R/D950N. It counts as cell-based.
Assay [5] has as its system NL4-3∆Env-NanoLuc/SARS-CoV-2 mutant pseudovirus E484K/N501Y/D614G. The assay is classed as cell-based.
Assay [6] concerns NL4-3∆Env-NanoLuc/SARS-CoV-2 mutant pseudovirus N501Y/∆69–70. It counts as cell-based.
For assay [7], the system named is NL4-3∆Env-NanoLuc/SARS-CoV-2 mutant pseudovirus P681H. It counts as cell-based.
Assay [8] relates to NL4-3∆Env-NanoLuc/SARS-CoV-2 mutant pseudovirus N501Y. The assay is classed as cell-based.
Assay [9] has as its system NL4-3∆Env-NanoLuc/SARS-CoV-2 mutant pseudovirus E484K/D614G. The assay is classed as cell-based.
For assay [10], the system named is NL4-3∆Env-NanoLuc/SARS-CoV-2 mutant pseudovirus N501Y/D614G. The assay is classed as cell-based.
Assay [11] concerns NL4-3∆Env-NanoLuc/SARS-CoV-2 mutant pseudovirus ∆69–70. It counts as cell-based.
Assay [12] relates to NL4-3∆Env-NanoLuc/SARS-CoV-2 mutant pseudovirus D950N. The assay is classed as cell-based.
Assay [13] relates to NL4-3∆Env-NanoLuc/SARS-CoV-2 mutant pseudovirus D614G/P681R. The assay is classed as cell-based.
Assay [14] has as its system NL4-3∆Env-NanoLuc/SARS-CoV-2 mutant pseudovirus N501Y/∆69–70/P681H. The assay is classed as cell-based.
The test system of assay [15] is NL4-3∆Env-NanoLuc/SARS-CoV-2 mutant pseudovirus D614G/D950N. The assay is classed as cell-based.
Assay [16] has as its system NL4-3∆Env-NanoLuc/SARS-CoV-2 mutant pseudovirus D614G. The assay is classed as cell-based.

This is an account of results in article PMC8780828 (Viruses, 2021).

For `O=C(O)c1cc(-c2ccc(/C=C3\SC(=S)N(CCc4ccccc4)C3=O)o2)ccc1Cl` [NBCoV1], the 50% inhibitory concentration (IC50) (usually the concentration at which inhibition is half-maximal) in assay [1] was 32 ± 0.5 nM; in assay [3], 42 ± 0.7 nM; in [4], 58 ± 7 nM; in assay [5] it was 45 ± 2 nM; in assay [6], 46 ± 0.5 nM; in assay [7], 35 ± 0.5 nM. Moreover, the IC50 in assay [8] was 52.5 ± 0.2 nM; in assay [9] it was 33 ± 0.5 nM; in assay [10] it was 57 ± 2 nM; in assay [11], 48 ± 3 nM; in [12] it was 47.7 ± 15 nM; in assay [13], 49 ± 13 nM. Moreover, the IC50 in assay [14] is 57 ± 0.5 nM; in assay [15] it was 33 ± 10 nM; in assay [16], 56 ± 0.6 nM. In assay [2], the ka amounted to 1040 M⁻¹ s⁻¹. For the same compound, the kd in assay [2] stood at 0.00162 s⁻¹.
As for `O=C(O)c1cccc(-c2ccc(/C=C3\SC(=S)N(CCc4ccccc4)C3=O)o2)c1` [NBCoV2], the concentration for half-maximal inhibition (IC50) in assay [1] amounted to 36 ± 0.4 nM; in [3] it was 45 ± 0.2 nM; in [4] it was 53 ± 12 nM; in assay [5], 43 ± 0.5 nM; in [6], 66 ± 1 nM; in assay [7] it was 51 ± 0.3 nM. Moreover, the IC50 was 49 ± 0.5 nM in assay [8]; 35 ± 0.2 nM in assay [9]; 59 ± 13 nM in assay [10]; 55 ± 0.5 nM in assay [11]; 88.7 ± 6 nM in assay [12]; 65 ± 18 nM in assay [13]. In addition, the figures for the IC50 in assay [14], in [15] and in assay [16] were 79 ± 14 nM, 26 ± 2 nM and 61 ± 0.3 nM, respectively. In assay [2], the ka came out at 872 M⁻¹ s⁻¹. This compound returned a kd in assay [2] of 0.00468 s⁻¹.
For `O=C(O)c1cc(-c2ccc(/C=C3\SC(=S)N(CCc4ccccc4)C3=O)o2)ccc1F` [NBCoV3], the concentration for half-maximal inhibition (IC50) in assay [1] came out at 42 ± 1 nM; in assay [3] it was 80 ± 10.6 nM; in [5], 101 ± 2 nM; in [6] it was 94 ± 16 nM; in assay [7], 55 ± 0.3 nM; in [8], 44.5 ± 0.5 nM. Moreover, the half-inhibitory concentration (IC50) worked out at 44 ± 0.8 nM in assay [9]; 104 ± 1 nM in assay [10]; 69 ± 7 nM in [11]; 232 ± 17 nM in assay [14]; 145 ± 28 nM in assay [16].
For the compound `Cc1ccc(-c2ccc(/C=C3\SC(=S)N(CCc4ccccc4)C3=O)o2)cc1C(=O)O` [NBCoV4], the concentration for half-maximal inhibition (IC50) in assay [1] came out at 51 ± 5 nM; in [3], 45 ± 0.4 nM; in assay [4], 239 ± 7 nM; in assay [5], 43 ± 2.5 nM; in assay [6], 53 ± 11 nM; in [7] it was 44 ± 0.4 nM. The IC50 in [8] came to 51 ± 0.4 nM; in [9], 44 ± 3 nM; in [10], 77 ± 29 nM; in assay [11] it was 53 ± 0.5 nM; in assay [12], 207 ± 29 nM; in [13], 148 ± 30 nM. Moreover, the figures for the half-inhibitory concentration (IC50) in assay [14], in [15] and in [16] were 158 ± 31 nM, 77.5 ± 16.5 nM and 58 ± 0.4 nM, respectively.
On to `Cc1c(C(=O)O)cccc1-c1ccc(/C=C2\SC(=S)N(CCc3ccccc3)C2=O)o1` [NBCoV5], for which the IC50 in assay [1] is greater than 2000 nM; in assay [3], greater than 2000 nM; in [4], greater than 2000 nM; in assay [5], greater than 2000 nM; in assay [6] it was greater than 2000 nM; in assay [7] it was 1720 ± 215 nM. Moreover, the half-inhibitory concentration (IC50) is greater than 2000 nM in [8]; 1850 ± 124 nM in assay [9]; greater than 2000 nM in assay [10]; greater than 2000 nM in assay [11]; greater than 2000 nM in assay [12]; greater than 2000 nM in assay [13]. Also, the half-inhibitory concentration (IC50) was greater than 2000 nM in assay [14], greater than 2000 nM in assay [15] and 1730 ± 62.5 nM in assay [16].
